Legend:
pigweed = test: Test A pre-/postemergence herbicide test; assay type: in vivo, Amaranthus retroflexus
In short: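 Greenhouse pot test with pre- and postemergence application of surfactant-containing solvent formulations. Postemergence plants were 2–10 cm, one- to two-leaf stage. Response scored visually after ~10 days, 0 (no effect) to 100 (complete control).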

blackgrass = test: Test A postemergence herbicide test; assay type: in vivo, Alopecurus myosuroides
In short: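 Ratings compare treated with untreated plants roughly 10 days after a postemergence application made at the one- to two-leaf stage. Scoring uses 0–100, where 0 means no effect and 100 complete control.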

galium = test: Test C pre-/postemergence herbicide test; assay type: in vivo, Galium aparine
In short: (§1)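 Greenhouse pots; formulation = non-phytotoxic solvent mix + surfactant. PRE onto seeds in loam:sand; POST at 1–4 leaves (2–18 cm) in peat moss/vermiculite medium. Read-out: visual % control vs untreated, day 13–15.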

foxtail, giant = test: Test C pre-/postemergence herbicide test; assay type: in vivo, Setaria faberii
In short: as §1

morningglory = test: Test C pre-/postemergence herbicide test; assay type: in vivo, Ipomoea coccinea
In short: as §1

kochia = test: Test C pre-/postemergence herbicide test; assay type: in vivo, Kochia scoparia; settings: Postemergence
In short: as §1

oat, wild = test: Test C pre-/postemergence herbicide test; assay type: in vivo, Avena fatua; settings: Postemergence
In short: as §1

rice = test: Test C flooded paddy test; assay type: in vivo, Oryza sativa; settings: Flood
In short: (§2)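 Ratings reflect visual comparison with controls on a 0–100 scale, where 100 is complete control. Compound is dosed into standing paddy water 3 cm deep over 2-leaf-stage plants, kept in the greenhouse 13 to 15 days.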

barnyardgrass = test: Test C flooded paddy test; assay type: in vivo, Echinochloa crus-galli; settings: Flood
In short: as §2

[1] = Postemergence, 125 g ai/ha, visual rating on 0 to 100 scale (0 no effect, 100 complete control), approx. 10 days
[2] = Postemergence, 500 g ai/ha, 0 to 100 scale (0 no effect, 100 complete control)
[3] = Preemergence, 125 g ai/ha, 0 to 100 scale where 0 is no effect and 100 is complete control
[4] = preemergence, 500 g ai/ha, 0 to 100 scale, 0 is no effect and 100 is complete control
[5] = 125 g ai/ha, 0 to 100 scale, 0 is no effect, 100 is complete control
[6] = 500 g ai/ha, 0 to 100 scale (0 no effect, 100 complete control)
[7] = Postemergence, 8 g ai/ha, scale 0 to 100 (0 no effect, 100 complete control)
[8] = Postemergence, 16 g ai/ha, scale 0 to 100 (0 no effect, 100 complete control)
[9] = Postemergence, 31 g ai/ha, scale 0 to 100 (0 no effect, 100 complete control)
[10] = Postemergence, 62 g ai/ha, scale 0 (no effect) to 100 (complete control)
[11] = Preemergence, 31 g ai/ha, scale 0 to 100, 0 is no effect and 100 is complete control
[12] = Preemergence, 62 g ai/ha, scale 0 to 100 (0 no effect, 100 complete control)
[13] = Preemergence, 8 g ai/ha, scale 0 to 100
[14] = Preemergence, 16 g ai/ha, scale 0 to 100
[15] = 8 g ai/ha, scale 0 to 100 (0 no effect, 100 complete control)
[16] = 16 g ai/ha, scale 0 to 100 (0 no effect, 100 complete control)
[17] = 31 g ai/ha, scale 0 to 100 (0 no effect, 100 complete control)
[18] = 62 g ai/ha, scale 0 (no effect) to 100 (complete control)
[19] = 125 g ai/ha, scale of 0 to 100 where 0 is no effect and 100 is complete control, 13 to 15 days
[20] = 250 g ai/ha, scale of 0 to 100 where 0 is no effect and 100 is complete control, 13 to 15 days
[21] = Postemergence, 125 g ai/ha, scale 0 to 100 (0 no effect, 100 complete control)
[22] = Preemergence, 125 g ai/ha, scale 0 to 100 (0 no effect, 100 complete control)
[23] = 125 g ai/ha, scale 0 to 100 (0 no effect, 100 complete control)
[24] = 62 g ai/ha, scale of 0 to 100 where 0 is no effect and 100 is complete control, 13 to 15 days

SMILES: CN1CC(c2ccc(F)cc2)C(C(=O)Nc2cccc(F)c2F)C1=O (stereo not shown) [Compound 271]
- Plant response rating, Pigweed (pigweed; [1]): 0
- Plant response rating, Pigweed (pigweed; [2]): 20
- Plant response rating, Pigweed (pigweed; [3]): 40
- Plant response rating, Pigweed (pigweed; [4]): 80
- Plant response rating, Blackgrass (blackgrass; [5]): 50
- Plant response rating, Blackgrass (blackgrass; [6]): 60
- Plant response rating, Galium (galium; [7]): 0
- Plant response rating, Galium (galium; [8]): 5
- Plant response rating, Galium (galium; [9]): 30
- Plant response rating, Galium (galium; [10]): 30
- Plant response rating, Foxtail, Giant (foxtail, giant; [7]): 0
- Plant response rating, Foxtail, Giant (foxtail, giant; [8]): 0
- Plant response rating, Foxtail, Giant (foxtail, giant; [9]): 0
- Plant response rating, Foxtail, Giant (foxtail, giant; [10]): 0
- Foxtail, Giant plant response rating (foxtail, giant; [11]): 90
- Foxtail, Giant plant response rating (foxtail, giant; [12]): 98
- Plant response rating, Foxtail, Giant (foxtail, giant; [13]): 55
- Plant response rating, Foxtail, Giant (foxtail, giant; [14]): 75
- Plant response rating, Morningglory (morningglory; [7]): 0
- Plant response rating, Morningglory (morningglory; [8]): 0
- Plant response rating, Morningglory (morningglory; [9]): 10
- Plant response rating, Morningglory (morningglory; [10]): 45
- Morningglory plant response rating (morningglory; [11]): 0
- Morningglory plant response rating (morningglory; [12]): 10
- Plant response rating, Morningglory (morningglory; [13]): 0
- Plant response rating, Morningglory (morningglory; [14]): 0
- Plant response rating, Kochia (kochia; [15]): 0
- Plant response rating, Kochia (kochia; [16]): 0
- Plant response rating, Kochia (kochia; [17]): 0
- Plant response rating, Kochia (kochia; [18]): 10
- Plant response rating, Oat, Wild (oat, wild; [15]): 0
- Plant response rating, Oat, Wild (oat, wild; [16]): 0
- Plant response rating, Oat, Wild (oat, wild; [17]): 0
- Plant response rating, Oat, Wild (oat, wild; [18]): 0
- Plant response rating, Rice (rice; [19]): 0
- Plant response rating, Rice (rice; [20]): 0
- Plant response rating, Rice (rice; 500 g ai/ha, scale 0 to 100): 0
- Plant response rating, Rice (rice; 1000 g ai/ha, scale 0 to 100): 0
- Plant response rating, Barnyardgrass (barnyardgrass; [19]): 40
- Plant response rating, Barnyardgrass (barnyardgrass; [20]): 45
- Plant response rating, Barnyardgrass (barnyardgrass; 500 g ai/ha, scale 0 to 100): 75
- Plant response rating, Barnyardgrass (barnyardgrass; 1000 g ai/ha, scale 0 to 100): 80

SMILES: CN1CC(c2cccc(C(F)(F)F)c2)C(C(=O)Nc2ccccc2F)C1=O (stereo not shown) [Compound 277]
- Plant response rating, Pigweed (pigweed; [1]): 30
- Plant response rating, Pigweed (pigweed; [2]): 30
- Plant response rating, Pigweed (pigweed; [3]): 20
- Plant response rating, Pigweed (pigweed; [4]): 30
- Plant response rating, Blackgrass (blackgrass; [5]): 50
- Plant response rating, Blackgrass (blackgrass; [6]): 50
- Plant response rating, Galium (galium; [8]): 40
- Plant response rating, Galium (galium; [9]): 45
- Plant response rating, Galium (galium; [10]): 60
- Plant response rating, Galium (galium; [21]): 75
- Galium plant response rating (galium; [11]): 100
- Galium plant response rating (galium; [12]): 90
- Plant response rating, Galium (galium; [22]): 100
- Plant response rating, Galium (galium; [14]): 0
- Plant response rating, Foxtail, Giant (foxtail, giant; [8]): 0
- Plant response rating, Foxtail, Giant (foxtail, giant; [9]): 10
- Plant response rating, Foxtail, Giant (foxtail, giant; [10]): 85
- Plant response rating, Foxtail, Giant (foxtail, giant; [21]): 85
- Foxtail, Giant plant response rating (foxtail, giant; [11]): 98
- Foxtail, Giant plant response rating (foxtail, giant; [12]): 98
- Plant response rating, Foxtail, Giant (foxtail, giant; [22]): 98
- Plant response rating, Foxtail, Giant (foxtail, giant; [14]): 95
- Plant response rating, Morningglory (morningglory; [8]): 15
- Plant response rating, Morningglory (morningglory; [9]): 30
- Plant response rating, Morningglory (morningglory; [10]): 30
- Plant response rating, Morningglory (morningglory; [21]): 40
- Morningglory plant response rating (morningglory; [11]): 0
- Morningglory plant response rating (morningglory; [12]): 0
- Plant response rating, Morningglory (morningglory; [22]): 45
- Plant response rating, Morningglory (morningglory; [14]): 0
- Plant response rating, Kochia (kochia; [16]): 0
- Plant response rating, Kochia (kochia; [17]): 0
- Plant response rating, Kochia (kochia; [18]): 5
- Plant response rating, Kochia (kochia; [23]): 60
- Plant response rating, Oat, Wild (oat, wild; [16]): 0
- Plant response rating, Oat, Wild (oat, wild; [17]): 0
- Plant response rating, Oat, Wild (oat, wild; [18]): 0
- Plant response rating, Oat, Wild (oat, wild; [23]): 5
- Plant response rating, Rice (rice; [24]): 0
- Plant response rating, Rice (rice; [19]): 0
- Plant response rating, Rice (rice; [20]): 0
- Plant response rating, Rice (rice; 500 g ai/ha, scale 0 to 100): 0
- Plant response rating, Barnyardgrass (barnyardgrass; [24]): 50
- Plant response rating, Barnyardgrass (barnyardgrass; [19]): 65
- Plant response rating, Barnyardgrass (barnyardgrass; [20]): 70
- Plant response rating, Barnyardgrass (barnyardgrass; 500 g ai/ha, scale 0 to 100): 70
